Source: patent US20240319209A1, “METHOD FOR QUANTIFYING AHSP PROTEIN AND ITS USE FOR PROGNOSING A HAEMOGLOBIN-RELATED DISORDER” (INSTITUT NATIONAL DE LA SANTÉ ET DE LA RECHERCHE MÉDICALE, priority 2021, published 2024)
Values joined by “and” are separate entries in the source; they are usually repeats but may differ in a detail not shown here. Identical values can stand only once. “Also recorded” adds a separate entry of the source.

Key:
SS patients = assay: Routine clinical and laboratory (haematological and biological) data in SS patients with HC treatment
α-Hb = assay: In vitro α-Hb pool measurement in haemolysate (capture on GST-AHSP affinity support); format: in vivo, human; conditions: Treated SS patients (HC), n=10, mean ± SD; ng free α-Hb per mg total subunits per mL of lysed RBCs
Method: (§1) We centrifuged 4 mL of whole blood from each subject for 5 min at 4° C., with blood samples processed within 2 h of collection. The plasma was gently removed, leaving 3 mm above the RBCs to retain the reticulocytes; the RBCs were washed with 0.15 M NaCl and then frozen at −80° C. They were thawed on ice and lysed with four volumes of cold distilled water, and incubated for 30 min at +4° C., before centrifugation at 16,000×g for 30 min at +4° C. The RBC lysate (haemolysate) was recovered as the supernatant and stored at −80° C.
The α-Hb pool was assessed for the RBC lysates of all subjects (SS patients and controls), by capturing α-Hb subunits on GST-AHSP bound to an affinity chromatography support, as previously described.^15

AHSP = assay: Determination of AHSP concentration in haemolysates by sandwich ELISA; format: in vivo, human
Method: as §1
We used high-binding 96-well ELISA plates (COSTAR High Binding ELISA Plates, Corning Incorporated, Corning, NY, USA). Following each step, up to 3,3′,5,5′-tetramethylbenzidine (TMB) addition, the wells were washed three times with 300 μL DPBS-0.05% Tween-20 (DPBS-TWEEN® Tablets, Calbiochem, Millipore Corporation, Burlington, MA, USA). The wells were coated with 100 μL/well anti-Ahsp antibody (EPR12319, diluted 1:1000 in DPBS) as the capture antibody. After 2 h at 37° C., the wells were washed and blocked by incubation for 2 h at 37° C. with 300 μL blocking buffer (0.15% BSA in DPBS). The wells were washed and left to dry in air, covered with SealPlate and stored at 4° C.
Serial dilutions of recombinant AHSP stored in −80° C. were prepared (0.395 to 3 ng/mL) in blocking buffer and added to the plate in duplicate in each assay, for construction of the calibration curve. Diluted recombinant AHSP were added to the coated wells (100 μL/well) and the plates were incubated for 2 h at 37° C. The plates were washed and 100 μL of biotin-conjugated rabbit polyclonal anti-human recombinant Ahsp antibody (Met1-Ser102) (ABIN2615200, Antibodies-online Gmb, Aachen, Germany, diluted 1:255 in blocking buffer), used as the detecting antibody, were added to each well, and the plates were incubated for 1 h at 37° C. The plates were washed five times and the samples were then incubated with 100 μL/well streptavidin-HRP (DY998, R&D Systems, Minneapolis, MN, USA, diluted 1:100 in blocking buffer) for 20 min at 37° C. in the dark. Next steps, washes and incubations, were performed in the dark. The reaction was developed by adding 50 μL/well TMB as a substrate (1-Step™ Ultra TMB-ELISA, Thermo Fisher Scientific). The plates were incubated for 5-10 min, and the reaction was then stopped by adding 50 μL/well 1 N sulfuric acid. Absorbance was measured immediately, at 450 nm (A450), with a microplate reader (Eon™, BioTek Instruments Inc, Winooski, Vermont, USA).
A standard curve was generated with known concentrations and absorbances of the recombinant human AHSP, with the EON microplate reader and Gen5 software.
The haemolysates were diluted 1:1000 in blocking buffer and added (100 μL/well) to the plate coated with the capture antibody. The plates were incubated for 2 h at 37° C., washed and 100 μL of the detecting antibody were added to each well, and then the plates were incubated for 1 h at 37° C. The further procedure is the same as for the AHSP range described above. The AHSP concentrations of the diluted haemolysates were determined by comparison to the standard curve expressed as ng per mL by the microplate reader. All the concentrations of AHSP obtained are the means of four ELISAs. Finally, taking into account the 1000-fold dilution of haemolysates, the final concentrations are reported in μg AHSP per mL of haemolysate.
The inter-subject variabilities were determined by calculating the CVs for four independent measurements of biological AHSP in each haemolysate.

[1] = Treated SS patients (HC), n=10, mean ± SD
[2] = HC-treated SS patients, n=10, FIG. 1

SMILES: NC(=O)NO [HC, hydroxycarbamide]
- LDH (SS patients; Treated SS patients (HC), n = 9, mean ± SD): 403.2 ± 68.09 U/L
- DRBCs (dense dehydrated RBCs, density > 1.110 g/mL) (SS patients; [1]): 4.3% and 4.3 ± 2.54%
- Ferritin (SS patients; [1]): 333.2 ± 206.8 µg/L
- Haematocrit (SS patients; [1]): 28.4 ± 4.74%
- Hb (SS patients; [1]): 9.9 ± 1.58 g/dL
- HbA2 (SS patients; [1]): 2.04 ± 0.53%
- HbF (SS patients; [1]): 21.51% and 21.51 ± 5.36%
- HbS (SS patients; [1]): 76.45 ± 4.9%
- MCH (SS patients; [1]): 39.7 ± 4.76 pg
- MCHC (SS patients; [1]): 34.8 ± 0.79 g/dL
- MCHbF (% HbF × MCH) (SS patients; [1]): 8.69 ± 2.81 pg
- MCHbS (% HbS × MCH) (SS patients; [1]): 30.22 ± 2.89 pg
- MCV (SS patients; [1]): 114.3 ± 13.43 fL
- Platelets (SS patients; [1]): 355.8 ± 125.5 ×10^9/L
- RBC (SS patients; [1]): 2.42 ± 0.45 ×10^12/L
- RDW (SS patients; [1]): 17 ± 2.26%
- Reticulocytes (SS patients; [1]): 114.7 ± 45.87 ×10^9/L
- Reticulocytes (%) (SS patients; [1]): 4.57 ± 1.79%
- Total bilirubin (SS patients; [1]): 28.5 ± 14.18 µmol/L
- WBC (SS patients; Treated SS patients (stable HC treatment for at least one year), n=10, mean ± SD): 6.88 ± 1.46 ×10^9/L
- α-Hb pool (α-Hb): 162 ± 31 ppm
- AHSP concentration, interquartile range (IQR) (AHSP; HC-treated SS patients, n=10): 1.26 to 1.76 µg/mL
- AHSP concentration, maximum value (AHSP; [2]): 2.16 μg AHSP per mL of haemolysate
- AHSP concentration, minimum value (AHSP; [2]): 1.18 μg AHSP per mL of haemolysate
- Effect of HC treatment on AHSP concentration in RBCs (in words) (AHSP; HC-treated vs untreated SS patients, remained higher than in controls): significantly lower; also recorded: significantly decreased
- Measured [AHSP], individual treated patients (AHSP; Individual HC-treated SS patients P13-P22, average of 3 or 4 independent measurements ± SD, haemolysate): 1.37 ± 0.17 µg/mL and 2.16 ± 0.29 µg/mL and 1.99 ± 0.26 µg/mL and 1.32 ± 0.13 µg/mL and 1.18 ± 0.21 µg/mL and 1.29 ± 0.23 µg/mL and 1.19 ± 0.28 µg/mL and 1.34 ± 0.15 µg/mL and 1.44 ± 0.17 µg/mL and 1.69 ± 0.15 µg/mL
- Measured [AHSP], group mean (AHSP; Treated SS patients (HC), n=10, mean ± SD, RBC haemolysate): 1.50 ± 0.34 µg/mL
